Assay results from ChEMBL document CHEMBL1201862, “PubChem BioAssay data set” (2004).
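Compound exposure: 48 hours, 5 concentrations, 96-well plates. GI50: concentration for 50% inhibition of growth.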 Active and inactive are the calls of the source. Cut-off read from the data, not from the text of the source: active = GI50 up to about 1.1 µM and inactive = higher.

What was measured:
Experiment in all cases: growth of human tumour cells (NCI), 48 h
SK-MEL-5 = tested on: SK-MEL-5
SR = tested on: SR
HT-29 = tested on: HT-29
UACC-62 = tested on: UACC-62
U-251 = tested on: U-251
KM12 = tested on: KM12
CCRF-CEM = tested on: CCRF-CEM
LOX IMVI = tested on: LOX IMVI
SK-OV-3 = tested on: SK-OV-3
786-0 = tested on: 786-0
MDA-N = tested on: MDA-N
ACHN = tested on: ACHN
NCI-H522 = tested on: NCI-H522
OVCAR-5 = tested on: OVCAR-5
M14 = tested on: M14
UACC-257 = tested on: UACC-257
BT-549 = tested on: BT-549
OVCAR-3 = tested on: OVCAR-3
NCI/ADR-RES = tested on: NCI/ADR-RES
SW-620 = tested on: SW-620
SK-MEL-2 = tested on: SK-MEL-2
MOLT-4 = tested on: MOLT-4
NCI-H460 = tested on: NCI-H460
SF-539 = tested on: SF-539
COLO 205 = tested on: COLO 205
SF-268 = tested on: SF-268
K562 = tested on: K562
CAKI-1 = tested on: CAKI-1
MDA-MB-435 = tested on: MDA-MB-435
Hs-578T = tested on: Hs-578T
UO-31 = tested on: UO-31
T47D = tested on: T47D
OVCAR-8 = tested on: OVCAR-8
HOP-92 = tested on: HOP-92
SN12C = tested on: SN12C
MDA-MB-231 = tested on: MDA-MB-231
OVCAR-4 = tested on: OVCAR-4
DU-145 = tested on: DU-145
SK-MEL-28 = tested on: SK-MEL-28
HOP-62 = tested on: HOP-62
HL-60 = tested on: HL-60
PC-3 = tested on: PC-3
Malme-3M = tested on: Malme-3M
IGROV-1 = tested on: IGROV-1
MCF7 = tested on: MCF7
NCI-H23 = tested on: NCI-H23
HCT-116 = tested on: HCT-116
TK-10 = tested on: TK-10
SNB-75 = tested on: SNB-75
RPMI-8226 = tested on: RPMI-8226
A549 = tested on: A549
HCT-15 = tested on: HCT-15
SNB-19 = tested on: SNB-19
A498 = tested on: A498
RXF 393 = tested on: RXF 393
NCI-H226 = tested on: NCI-H226
EKVX = tested on: EKVX
SF-295 = tested on: SF-295

## Cc1cc(Cc2cc(C)cc(C(C)(C)C)c2O)c(O)c(Cc2cc(C)cc(C(C)(C)C)c2O)c1
SK-MEL-5
  GI50: 1080 nM (active)
SR
  GI50: 2540 nM (inactive)
HT-29
  GI50: 2550 nM (inactive)
UACC-62
  GI50: 1860 nM (inactive)
U-251
  GI50: 2700 nM (inactive)
KM12
  GI50: 2910 nM (inactive)
CCRF-CEM
  GI50: 1730 nM (inactive)
LOX IMVI
  GI50: 3100 nM (inactive)
SK-OV-3
  GI50: 3330 nM (inactive)
786-0
  GI50: 3150 nM (inactive)
MDA-N
  GI50: 3660 nM (inactive)
ACHN
  GI50: 3370 nM (inactive)
NCI-H522
  GI50: 931 nM (active)
OVCAR-5
  GI50: 3480 nM (inactive)
M14
  GI50: 2640 nM (inactive)
UACC-257
  GI50: 2290 nM (inactive)
BT-549
  GI50: 1870 nM (inactive)
OVCAR-3
  GI50: 2690 nM (inactive)
NCI/ADR-RES
  GI50: 2850 nM (inactive)
SW-620
  GI50: 3340 nM (inactive)
SK-MEL-2
  GI50: 2160 nM (inactive)
MOLT-4
  GI50: 1410 nM (inactive)
NCI-H460
  GI50: 1570 nM (inactive)
SF-539
  GI50: 2510 nM (inactive)
COLO 205
  GI50: 4530 nM (inactive)
SF-268
  GI50: 1700 nM (inactive)
K562
  GI50: 931 nM (active)
CAKI-1
  GI50: 4080 nM (inactive)
MDA-MB-435
  GI50: 3120 nM (inactive)
Hs-578T
  GI50: 1670 nM (inactive)
UO-31
  GI50: 2980 nM (inactive)
T47D
  GI50: 3010 nM (inactive)
OVCAR-8
  GI50: 2750 nM (inactive)
HOP-92
  GI50: 2240 nM (inactive)
SN12C
  GI50: 2340 nM (inactive)
MDA-MB-231
  GI50: 1790 nM (inactive)
OVCAR-4
  GI50: 4050 nM (inactive)
DU-145
  GI50: 3400 nM (inactive)
SK-MEL-28
  GI50: 4140 nM (inactive)
HOP-62
  GI50: 2880 nM (inactive)
HL-60
  GI50: 2510 nM (inactive)
PC-3
  GI50: 2750 nM (inactive)
Malme-3M
  GI50: 2000 nM (inactive)
IGROV-1
  GI50: 3250 nM (inactive)
MCF7
  GI50: 2340 nM (inactive)
NCI-H23
  GI50: 1660 nM (inactive)
HCT-116
  GI50: 1920 nM (inactive)
TK-10
  GI50: 3030 nM (inactive)
SNB-75
  GI50: 4620 nM (inactive)
RPMI-8226
  GI50: 724 nM (active)
A549
  GI50: 3060 nM (inactive)
HCT-15
  GI50: 2240 nM
SNB-19
  GI50: 4110 nM (inactive)
A498
  GI50: 2390 nM (inactive)
RXF 393
  GI50: 2820 nM (inactive)
NCI-H226
  GI50: 3240 nM (inactive)
EKVX
  GI50: 2820 nM (inactive)
SF-295
  GI50: 3180 nM (inactive)
